According to the NIST ThermoML archive (doi:10.1016/j.jct.2011.08.016):

Assay: xn = mol fraction of the nth substance listed
Details: Liquid, Vibrating tube method

CCCCCCCCCC [decane] + CCCCCCCC
mass density [kg/m3]
Details	x2 = 0.0616	x2 = 0.2801	x2 = 0.5314	x2 = 0.7736
353.12 K, 10000 kPa	–	687.61	680.99	673.43
353.12 K, 10990 kPa	693.88	688.64	682.03	674.52
353.12 K, 12000 kPa	694.85	689.64	683.07	675.55
353.12 K, 13000 kPa	695.8	690.64	684.09	676.59
353.12 K, 14000 kPa	696.76	691.6	685.09	677.61
353.12 K, 15000 kPa	697.7	692.59	686.08	678.66
353.12 K, 16000 kPa	698.61	693.55	687.05	679.66
353.12 K, 17000 kPa	699.52	694.46	688	680.68
353.12 K, 18000 kPa	700.43	695.35	688.93	681.63
353.12 K, 19000 kPa	701.32	696.27	689.85	682.58
353.12 K, 20000 kPa	702.19	697.16	690.77	683.51
353.12 K, 21000 kPa	703.05	698.02	691.66	684.41
353.12 K, 22000 kPa	703.89	698.88	692.54	685.32
353.12 K, 23000 kPa	704.72	699.72	693.39	686.21
353.12 K, 24000 kPa	705.52	700.52	694.23	687.06
353.12 K, 25000 kPa	706.29	701.34	695.07	687.92
363.02 K, 1000 kPa	–	–	662.89	–
363.02 K, 2000 kPa	–	–	664.16	–
363.02 K, 3000 kPa	–	–	665.39	–
363.02 K, 4000 kPa	–	–	666.61	–
363.02 K, 5000 kPa	–	–	667.85	–
363.02 K, 6000 kPa	–	–	669.05	–
363.02 K, 7000 kPa	–	–	670.24	–
363.02 K, 8000 kPa	–	–	671.39	–
363.02 K, 9000 kPa	–	–	672.53	–
363.02 K, 10000 kPa	–	–	673.66	–
363.02 K, 10990 kPa	–	–	674.79	–
363.02 K, 12000 kPa	–	–	675.87	–
363.02 K, 13000 kPa	–	–	676.95	–
363.02 K, 14000 kPa	–	–	678.01	–
363.02 K, 15000 kPa	–	–	679.06	–
363.02 K, 16000 kPa	–	–	680.09	–
363.02 K, 17000 kPa	–	–	681.1	–
363.02 K, 18000 kPa	–	–	682.1	–
363.02 K, 19000 kPa	–	–	683.1	–
363.02 K, 20000 kPa	–	–	684.05	–
363.02 K, 21000 kPa	–	–	685	–
363.02 K, 22000 kPa	–	–	685.91	–
363.02 K, 23000 kPa	–	–	686.82	–
363.02 K, 24000 kPa	–	–	687.69	–
363.02 K, 25000 kPa	–	–	688.57	–
363.03 K, 1000 kPa	675.72	–	–	–
363.03 K, 2000 kPa	676.86	–	–	–
363.03 K, 3000 kPa	678.03	–	–	–
363.03 K, 4000 kPa	679.17	–	–	–
363.03 K, 5000 kPa	680.28	–	–	–
363.03 K, 6000 kPa	681.38	–	–	–
